What was measured:
Type in all cases: cell-based
[1] = molecular target: T1, Progesterone receptor (Homo sapiens) (UniProt P06401); assay: Activation of progesterone receptor in human T47D cells after 20 hrs by PRE-tagged luciferase reporter gene assay relative to control
T1 sequence (whole entry): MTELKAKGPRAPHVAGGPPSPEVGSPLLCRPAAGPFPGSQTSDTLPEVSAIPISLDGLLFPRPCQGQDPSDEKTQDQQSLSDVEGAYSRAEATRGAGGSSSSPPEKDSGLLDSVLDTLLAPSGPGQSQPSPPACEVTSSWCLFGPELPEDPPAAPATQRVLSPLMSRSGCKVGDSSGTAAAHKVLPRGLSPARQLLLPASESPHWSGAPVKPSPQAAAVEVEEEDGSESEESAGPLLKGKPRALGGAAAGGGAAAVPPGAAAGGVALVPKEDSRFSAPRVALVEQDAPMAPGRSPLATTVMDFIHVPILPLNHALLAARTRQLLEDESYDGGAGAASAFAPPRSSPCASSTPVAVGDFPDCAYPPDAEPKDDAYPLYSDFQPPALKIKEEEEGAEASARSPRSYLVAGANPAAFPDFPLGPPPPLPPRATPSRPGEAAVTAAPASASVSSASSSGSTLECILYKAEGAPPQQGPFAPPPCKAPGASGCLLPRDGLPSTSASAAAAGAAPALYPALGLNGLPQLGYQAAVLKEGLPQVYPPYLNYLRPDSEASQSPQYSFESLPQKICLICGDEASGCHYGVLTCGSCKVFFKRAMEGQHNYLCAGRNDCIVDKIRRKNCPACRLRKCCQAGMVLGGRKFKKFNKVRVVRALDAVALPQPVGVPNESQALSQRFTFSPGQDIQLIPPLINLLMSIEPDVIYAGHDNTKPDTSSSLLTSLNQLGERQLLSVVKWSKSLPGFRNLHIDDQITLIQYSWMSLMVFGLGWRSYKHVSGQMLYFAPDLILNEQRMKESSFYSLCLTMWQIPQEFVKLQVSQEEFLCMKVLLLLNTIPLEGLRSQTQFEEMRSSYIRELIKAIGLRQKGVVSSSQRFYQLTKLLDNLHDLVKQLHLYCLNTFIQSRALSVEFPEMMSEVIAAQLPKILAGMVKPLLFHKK

[2] = molecular target: T2, Mineralocorticoid receptor (Homo sapiens) (UniProt P08235); assay: Antagonist activity at mineralocorticoid receptor ligand binding domain expressed in african green monkey COS7 cells co-transfected with Gal4-LBD by luciferase reporter gene assay relative to control; set-up: scale not given: the % may be the effect or the level left; conditions: COS-7
T2 sequence (whole entry): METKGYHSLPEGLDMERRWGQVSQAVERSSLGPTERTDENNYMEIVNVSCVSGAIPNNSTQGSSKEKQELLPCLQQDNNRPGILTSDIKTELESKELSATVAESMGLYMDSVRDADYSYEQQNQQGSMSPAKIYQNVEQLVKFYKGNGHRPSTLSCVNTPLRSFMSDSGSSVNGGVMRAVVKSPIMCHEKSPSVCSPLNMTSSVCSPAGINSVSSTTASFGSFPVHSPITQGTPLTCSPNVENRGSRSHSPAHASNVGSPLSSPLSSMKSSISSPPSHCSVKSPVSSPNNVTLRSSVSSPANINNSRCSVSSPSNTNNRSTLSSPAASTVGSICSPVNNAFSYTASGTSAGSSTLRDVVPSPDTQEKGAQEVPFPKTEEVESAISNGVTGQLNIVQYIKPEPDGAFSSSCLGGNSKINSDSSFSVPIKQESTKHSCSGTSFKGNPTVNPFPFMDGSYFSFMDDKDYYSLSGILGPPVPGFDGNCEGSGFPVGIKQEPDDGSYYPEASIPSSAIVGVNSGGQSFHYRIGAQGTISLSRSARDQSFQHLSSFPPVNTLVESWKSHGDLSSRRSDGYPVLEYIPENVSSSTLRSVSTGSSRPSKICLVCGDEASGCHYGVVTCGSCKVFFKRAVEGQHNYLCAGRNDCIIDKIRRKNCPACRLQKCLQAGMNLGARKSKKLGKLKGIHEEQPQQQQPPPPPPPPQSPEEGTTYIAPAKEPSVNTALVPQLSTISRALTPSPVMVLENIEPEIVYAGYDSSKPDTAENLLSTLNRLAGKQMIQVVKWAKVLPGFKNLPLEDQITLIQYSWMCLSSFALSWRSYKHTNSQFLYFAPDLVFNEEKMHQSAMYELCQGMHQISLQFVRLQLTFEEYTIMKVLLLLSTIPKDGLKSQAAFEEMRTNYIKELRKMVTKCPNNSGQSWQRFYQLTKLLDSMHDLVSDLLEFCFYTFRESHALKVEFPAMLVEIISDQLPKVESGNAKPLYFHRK

[3] = molecular target: T3, Androgen receptor (Homo sapiens) (UniProt P10275); assay: Antagonist activity at androgen receptor ligand binding domain expressed in african green monkey COS7 cells co-transfected with Gal4-LBD by luciferase reporter gene assay relative to control; set-up: scale not given: the % may be the effect or the level left; conditions: COS-7
T3 sequence (whole entry): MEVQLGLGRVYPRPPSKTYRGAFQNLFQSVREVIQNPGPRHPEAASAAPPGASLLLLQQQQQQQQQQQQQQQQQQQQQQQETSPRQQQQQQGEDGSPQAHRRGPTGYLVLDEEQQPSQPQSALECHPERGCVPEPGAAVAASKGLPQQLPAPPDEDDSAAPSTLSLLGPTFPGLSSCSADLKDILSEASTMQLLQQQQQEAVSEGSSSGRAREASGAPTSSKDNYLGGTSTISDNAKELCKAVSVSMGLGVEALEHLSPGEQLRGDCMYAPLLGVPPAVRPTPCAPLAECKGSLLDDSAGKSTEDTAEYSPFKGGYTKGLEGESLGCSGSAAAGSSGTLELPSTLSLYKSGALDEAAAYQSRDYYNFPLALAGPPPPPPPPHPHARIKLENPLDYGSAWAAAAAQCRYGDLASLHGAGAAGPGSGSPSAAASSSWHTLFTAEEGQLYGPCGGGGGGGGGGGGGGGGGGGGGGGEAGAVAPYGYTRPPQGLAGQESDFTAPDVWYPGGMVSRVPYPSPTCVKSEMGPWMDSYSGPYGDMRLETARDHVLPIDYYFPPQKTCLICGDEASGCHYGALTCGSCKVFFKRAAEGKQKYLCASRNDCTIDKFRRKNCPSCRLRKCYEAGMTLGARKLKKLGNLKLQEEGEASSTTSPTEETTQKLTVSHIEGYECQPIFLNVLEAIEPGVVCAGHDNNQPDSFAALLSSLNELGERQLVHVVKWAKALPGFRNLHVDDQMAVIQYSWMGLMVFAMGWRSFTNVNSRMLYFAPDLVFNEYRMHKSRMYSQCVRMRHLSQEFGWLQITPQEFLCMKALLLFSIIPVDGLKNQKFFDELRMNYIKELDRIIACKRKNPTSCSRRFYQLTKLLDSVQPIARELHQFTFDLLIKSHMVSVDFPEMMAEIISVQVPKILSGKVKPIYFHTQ

SMILES	Efficacy [1] [%]	Activity [2] [%]	Activity [3] [%]
CC1(C)C(=O)CC[C@]2(C)[C@@]3(C)c4[nH]c5ccccc5c4C[C@@H]3CC[C@@]12O [LECANINDOLE B]	< 1	47	32
CC1(C)[C@H](O)CC[C@]2(C)[C@@]3(C)c4[nH]c5ccccc5c4C[C@@H]3CC[C@@]12O [LECANINDOLE D]	68	82	41

From ChEMBL document CHEMBL1154793, “The lecanindoles, nonsteroidal progestins from the terrestrial fungus Verticillium lecanii 6144” (J Nat Prod, 2009)
